According to patent US20240238282A1, “METHODS OF TREATING CANCER AND ISCHEMIA DISEASES BY INHIBITION AND INTERVENTION OF ATR PROLYL ISOMERIZATION” (The University of Toledo, priority 2022, published 2024):

Tested on: patient derived PDCL5 cells of metastatic pancreatic cancer
Assay: Cell killing of patient-derived pancreatic cancer PDCL5 cells by gemcitabine, LB-100 or the combination
Format: cell-based, human
Conditions: single agent: gemcitabine 1.0 uM or LB-100 5 uM, 72 hours (FIG. 3E)
Procedure: FIGS. 3A-3E: Analysis of the antiapoptotic function of cis-ATR in human cancer via TCGA data mining. […] FIGS. 3F-3G show two patient-derived pancreatic cancer cells, PDCL5 and PDCL15, subjected to MTT assays after treating with the PDAC therapy drug gemcitabine (1.0 μM or 0.3 μM, respectively) and PP2A inhibitor LB-100 (5 μM), alone or in combination, for 72 hours. PANC-1 cells were treated with gemcitabine (1.0 μM) or FOLFIRINOX (5-FU, 10 μM, oxaliplatin, 0.1 μM, leucovorin, 0.15 μM, irinotecan, 0.1 μM), alone or in combination with LB-100 (1.0 μM), for 72 hours before the MTT assay.
To further validate the above observations are not at random, the 5-year survival probability (SP) of different subgroups was calculated for all 17 cancer types, and paired Wilcoxon rank-sum tests were performed. […] The SP difference of DAPK1 expression level is not significant, likely because DAPK indirectly regulates cis-ATR while ATR is a direct substrate of Pin1 and PP2A. […] This remains true even for the analysis regardless of cancer types (FIG. 3D). […]
MTT viability assays were performed according to the manufacturer's specifications (Cayman's MTT Proliferation Assay kit #10009365), and […]. […]

| SMILES | cell death induced |
| --- | --- |
| Nc1ccn([C@@H]2O[C@H](CO)[C@@H](O)C2(F)F)c(=O)n1 [Gemcitabine, gemcitabine] | little cell death |
| CN1CCN(C(=O)C2C3CCC(O3)C2C(=O)O)CC1 (centres unmarked) [LB-100] | little cell death |
